What was measured:
[1] = tested on: SHIN3 cells derived from human ovarian cancer (peritoneal dissemination model); experiment: Live imaging of cancer model mouse using fluorescent endoscope; assay type: in vivo; conditions: 300 μL of 50 μM in PBS sprayed from endoscope tip
Text: (§1) Disseminated metastasis of ovarian cancer to the peritoneum is known as a generally-occurring lethal complication of ovarian cancer. Such metastasis to the peritoneum begins to occur at a relatively early stage of ovarian cancer, the tumor invades the […], and falls into the abdominal cavity, and as a result, the tumor metastasizes to the other organs in the abdominal cavity as seeds are scattered (dissemination metastasis). In order to experimentally reproduce this phenomenon, SHIN3 cells of ovarian cancer origin were intraperitoneally administered to athymic mice to prepare a peritoneal dissemination model (Neoplasia, 8, pp. 607-612, 2006).
The SHIN3 cells derived from human ovarian cancer were cultured at 37° C. in the RPMI 1640 medium containing 10% FBS, 100 U/mL of penicillin, and 100 μg/mL of streptomycin under 5% CO2. After the cells reached subconfluent, the cells were washed with PBS (phosphate buffered saline), and removed with Trypsin-EDTA so that individual cells were separated. The treated cells were centrifuged (100×g, 4° C., 3 minutes), and after the supernatant was discarded, ice-cooled PBS was added to the cells to suspend them at a cell density of 1×10^6 cells/300 μL. […]
A small hole was formed in the abdominal part of the peritoneal dissemination model mouse under isoflurane anesthesia, a fluorescence endoscope was inserted into the abdominal cavity through the hole, and 300 μL of a solution of Compound (2) (γGlu-RhoHM) in PBS (50 μM) was sprayed in a misty state from the tip of the endoscope. Then, an excitation light of 450 to 480 nm was irradiated, and fluorescence of 516 to 556 nm was observed over time to obtain fluorescence endoscope movies and images. In each of the results obtained immediately after the spray (0 sec), and 30 seconds, 60 seconds, 90 seconds, and 10 minutes after the spray, a white light image is shown on the left side, and a fluorescence image is shown on the right side. The “white light image” is an image obtained in a usual endoscope mode, not a fluorescence mode for comparison.

LAP = experiment: Enzyme specificity: reaction with LAP; assay type: biochemical
Experimental: Enzyme specificity of Compound (2) was examined. The DMSO solution (5 mM) in a volume of 3 μL was dissolved in 3 mL of a 0.1 M sodium phosphate buffer (pH 7.4) at a final concentration of 5 μM, and LAP (0.4 U) was added to the solution to perform the enzymatic reaction at 37° C.

[2] = tested on: SHIN3 cells derived from human ovarian cancer (peritoneal dissemination model); experiment: Fluorescence imaging using cancer model mouse (peritoneal dissemination model); assay type: in vivo, athymic mice; conditions: 300 μL of 50 μM in PBS i.p., 30 minutes after administration, from outside the body and after abdominal section
Text: as §1, with “2006). […]” for “2006).”
A solution of Compound (2) (γGlu-RhoHM) in PBS (50 μM) in a volume of 300 μL was intraperitoneally (i.p.) administered to the peritoneal dissemination model mice. Fluorescence imaging was performed by irradiating an excitation light of 450 to 480 nm from the outside of the mouse body under anesthesia 30 minutes after the i.p. administration, and observing fluorescence of 516 to 556 nm. Further, after the mice were sacrificed with CO2 gas, and exsanguination was performed, abdominal section was performed with surgery appliances for small animals to expose the abdominal cavity, an excitation light of 445 to 490 nm was irradiated, and fluorescence was measured at every 10 nm from 520 to 800 nm to obtain fluorescence spectrum images. […]

[3] = tested on: γ-glutamyltranspeptidase (GGT, equine kidney); experiment: Enzymatic reaction of the fluorescent probe with γ-glutamyltranspeptidase (GGT); assay type: biochemical; conditions: 5 μM compound, excitation 501 nm
Experimental: Compound (2) (γGlu-RhoHM) formed by binding the acyl residue derived from glutamic acid to one amino group of Compound (1) (RhoHM) was dissolved in a neutral phosphate buffer, and γ-glutamyltranspeptidase (GGT, equine kidney, SIGMA G9270-100UN) was reacted with the solution. Specifically, 3 μL of a […] of the compound in dimethyl sulfoxide (DMSO) was dissolved at a final concentration of 5 μM in 3 mL of a 0.1 M sodium phosphate buffer (pH 7.4), and GGT (1.1 U) was added for the enzymatic reaction at 37° C. The excitation wavelength was 501 nm.
The DMSO solution of the compound (5 mM) in a volume of 3 μL was dissolved in 3 mL of a 0.1 M sodium phosphate buffer (pH 7.4) at a final concentration of 5 μM, and the enzymatic reaction was performed at 37° C. The values of fluorescence intensity observed with each amount of the enzyme 9 minutes after the addition of the enzyme were plotted. The excitation wavelength was 501 nm, and the fluorescence emission wavelength was 524 nm.

## Nc1ccc2c(c1)Oc1cc(NC(=O)CC[C@H](N)C(=O)O)ccc1C21OCc2ccccc21 (some centres unmarked) [Compound (2), γGlu-RhoHM]
[1]
  time to specific fluorescence emission of the cancerous part: specifically emit fluorescence within several minutes
[1]; 10 minutes after the spray
  cancerous tissue fluorescence images 10 minutes after spray: cancerous tissues were clearly imaged
[1]; excitation 450 to 480 nm, fluorescence 516 to 556 nm
  cancerous tissue fluorescence images from immediately after spray to 90 seconds: cancerous tissue images became clearer
LAP; 5 μM compound, 0.1 M sodium phosphate buffer pH 7.4, LAP 0.4 U, 37° C.
  increase of fluorescence intensity after reaction with LAP: increase of fluorescence intensity was not observed
LAP; conclusion from the reactions with LAP (Example 3) and GGT (Example 2)
  enzyme specificity (GGT versus LAP): specifically detected GGT
[2]
  fluorescence of cancer sites in imaging: strong green fluorescence was observed in a cancer site-specific manner
[3]; 0.1 M sodium phosphate buffer pH 7.4, GGT 1.1 U, 37° C.
  change of absorption and fluorescence intensity after reaction with GGT: remarkable elevations of absorption and fluorescence intensity were immediately observed
[3]; pH 7.4, 37° C., 9 minutes after addition of enzyme, emission 524 nm
  fluorescence intensity versus added GGT amount: linear increase of fluorescence intensity in an added GGT amount-dependent manner

From US20140206992A1, “METHOD FOR DIAGNOSING CANCER” (THE UNIVERSITY OF TOKYO, priority 2010, published 2014)
